molecular target: T1, human glucagon receptor (Homo sapiens, UniProt P47871); assay: Glucagon binding inhibitory activity ([125I]-glucagon binding to glucagon receptor membrane protein); details: test compound 10 μM; 0.4% DMSO = 0%, non-labeled glucagon 1 μM = 100%
T1 construct: made in house; host or cells: FreeStyle CHO cells, transient transfection with pMSRαneo/hGCGR; membrane fraction (35,000 rpm pellet)
Experimental: The glucagon binding inhibitory action of the compound of the present invention was evaluated by the following method.
(1) Cloning of Human Glucagon Receptor Gene
Human glucagon receptor gene was cloned by PCR reaction using human pancreas Marathon-ready cDNA (Clontech) as a template and the following primer set.
PCR reaction was performed using Advantage 2 polymerase (Clontech) and according to the attached protocol. The obtained PCR product was electrophoresed on an agarose gel (1%). An about 1.4 kb of DNA fragment containing a glucagon receptor gene was recovered from the gel and digested with restriction enzymes EcoRI and NotI. DNA treated with the restriction enzymes was electrophoresed on an agarose gel (1%). An about 1.4 kb of DNA fragment was recovered and ligated to plasmid pMSRαneo digested with restriction enzymes EcoRI and NotI to construct a human-type glucagon receptor expression plasmid DNA “pMSRαneo/hGCGR”.
(2) Preparation of Glucagon Receptor Membrane Protein
A human-type glucagon receptor was expressed using FreeStyle CHO Expression System (Invitrogen). A transient expression in FreeStyle CHO cell was performed using a human-type glucagon receptor expression plasmid DNA “pMSRαneo/hGCGR” and according to the manual attached to the FreeStyle CHO Expression System. The above-mentioned DNA was transfected and the cultured with shaking for 2 days (37° C., 8% CO2, 125 rpm). 2400 ml of culture medium was centrifuged at 2,000 rpm for 10 min and the cells were collected. The collected cells were washed with PBS, suspended in homogenate buffer [10 mM NaHCO3 (pH 7.4), 1 mM EDTA, Complete EDTA-free (Roche, 1 tablet/50 ml)] and disrupted by polytron cell disrupter (Kinematica AG). Disruption solution was centrifuged at 2,000 rpm for 10 min and the supernatant was collected.
(3) Measurement of Glucagon Binding Inhibitory Activity
The plate was stood for 90 min at room temperature. The reaction solution was transferred from the reaction plate to a 96 well unifilter GF/C plate (Perkin Elmer Inc.) using a cell harvester (Perkin Elmer Inc.) and the membrane fraction was collected on the filter by suction. The filter was presoaked in 2 mg/ml of polyethyleneimine to prevent non-specific adsorption of labeled ligand. The filter was washed 4 times with a reaction buffer and dried for 2 hr at 42° C. To each well was added 25 μl of scintillator (MicroScint0; Perkin Elmer Inc.), and the fluorescence amount was measured using a microplate scintillation counter (TopCount NXT™; Perkin Elmer Inc.).
In addition, the inhibitory rate (%) of the well added with the test compound (10 μM; containing 0.4% DMSO) was calculated, using the reaction rate of the well added only with 0.4% DMSO as 0% inhibitory rate, and the reaction rate of the well added with non-labeled glucagon (final concentration 1 μM) as 100% inhibitory rate.

T1 sequence (P47871 26-477): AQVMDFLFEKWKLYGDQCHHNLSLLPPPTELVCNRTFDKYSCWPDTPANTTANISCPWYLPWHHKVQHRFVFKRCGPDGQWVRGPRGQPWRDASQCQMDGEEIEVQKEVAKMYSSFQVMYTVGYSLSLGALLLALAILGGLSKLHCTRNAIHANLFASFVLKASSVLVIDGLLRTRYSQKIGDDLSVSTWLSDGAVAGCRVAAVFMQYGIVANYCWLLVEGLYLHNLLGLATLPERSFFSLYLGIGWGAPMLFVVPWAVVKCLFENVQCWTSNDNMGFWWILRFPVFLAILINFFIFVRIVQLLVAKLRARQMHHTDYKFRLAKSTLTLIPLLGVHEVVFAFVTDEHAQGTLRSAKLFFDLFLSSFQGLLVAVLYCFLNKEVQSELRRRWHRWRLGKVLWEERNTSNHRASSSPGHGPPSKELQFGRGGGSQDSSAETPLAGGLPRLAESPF

inhibitory rate (%) at 10 μM [%]	SMILES
85	Cc1c(C(Nc2ccc(C(=O)N(C)CCC(=O)O)nc2)C2CCCCC2)sc2ccccc12 (centres unmarked) [Example A60, 3-{[(5-{[cyclohexyl(3-methyl-1-benzothiophen-2-yl)methyl]amino}pyridin-2-yl)carbonyl](methyl)amino}propanoic acid]

same assay, conditions: test compound 10 μM; 0.4% DMSO = 0%, non-labeled glucagon 1 μM = 100%; read-out: inhibitory rate (%) at 10 μM

SMILES	inhibition at 10 µM [%]
CCCCCCC(Nc1ccc(C(=O)NCCC(=O)O)cc1)c1oc2ccc(OC)cc2c1C (centres unmarked) [Example A118, 3-{[(4-{[1-(5-methoxy-3-methyl-1-benzofuran-2-yl)heptyl]amino}phenyl)carbonyl]amino}propanoic acid]	70
Cc1c(C(Nc2ccc(C(=O)N(C)CCC(=O)O)cc2)C2CCCCC2)sc2cccnc12 (centres unmarked) [Example A145, 3-{[(4-{[cyclohexyl(3-methylthieno[3,2-b]pyridin-2-yl)methyl]amino}phenyl)carbonyl](methyl)amino}propanoic acid]	76
Cc1c(C(Nc2ccc(C(=O)N(C)CCC(=O)O)cn2)C2CCCCC2)oc2c(F)cc(F)cc12 (centres unmarked) [Example A185, 3-{[(6-{[cyclohexyl(5,7-difluoro-3-methyl-1-benzofuran-2-yl)methyl]amino}pyridin-3-yl)carbonyl](methyl)amino}propanoic acid]	71
CCCCCCC(Nc1ccc(C(=O)N(C)CCC(=O)O)cc1)c1oc2ccc(OC)cc2c1C (centres unmarked) [Example A119, 3-{[(4-{[1-(5-methoxy-3-methyl-1-benzofuran-2-yl)heptyl]amino}phenyl)carbonyl](methyl)amino}propanoic acid]	70
Cc1c(C(Nc2ccc(C(=O)N(C)CCC(=O)O)cc2)C2CCCCC2)oc2ccc(OCc3cccnc3)cc12 (centres unmarked) [Example A156, 3-[{[4-({cyclohexyl[3-methyl-5-(pyridin-3-ylmethoxy)-1-benzofuran-2-yl]methyl}amino)phenyl]carbonyl}(methyl)amino]propanoic acid]	80
Cc1c(C(Nc2ccc(C(=O)N(C)CCC(=O)O)cc2)C2CCCCC2)sc2cc(C(F)(F)F)cnc12 (centres unmarked) [Example A146, 3-[{[4-({cyclohexyl[3-methyl-6-(trifluoromethyl)thieno[3,2-b]pyridin-2-yl]methyl}amino)phenyl]carbonyl}(methyl)amino]propanoic acid]	77
Cc1c(C(CC(C)C)Nc2ccc(C(=O)NCCC(=O)O)cc2)sc2ccccc12 (centres unmarked) [Example A33, 3-{[(4-{[3-methyl-1-(3-methyl-1-benzothiophen-2-yl)butyl]amino}phenyl)carbonyl]amino}propanoic acid]	76
Cc1c(C(CC(C)C)Nc2ccc(C(=O)N(C)CCC(=O)O)cc2)oc2ccc(Cl)cc12 (centres unmarked) [Example A101, 3-{[(4-{[1-(5-chloro-3-methyl-1-benzofuran-2-yl)-3-methylbutyl]amino}phenyl)carbonyl](methyl)amino}propanoic acid]	76
COc1ccc(-n2cc(C(CC(C)C)Nc3ccc(C(=O)N(C)CCC(=O)O)cc3)c(C3CC3)n2)cc1 (centres unmarked) [Example 45, 3-[{[4-({1-[3-cyclopropyl-1-(4-methoxyphenyl)-1H-pyrazol-4-yl]-3-methylbutyl}amino)phenyl]carbonyl}(methyl)amino]propanoic acid]	60
CCC(CC)C(Nc1ccc(C(=O)NCCC(=O)O)cc1)c1oc2ccc(F)cc2c1C (centres unmarked) [Example A191, 3-{[(4-{[2-ethyl-1-(5-fluoro-3-methyl-1-benzofuran-2-yl)butyl]amino}phenyl)carbonyl]amino}propanoic acid]	82

Results, then the molecule that gave them:

inhibition at 10 µM [%]	SMILES
84	Cc1c(C(Nc2ccc(C(=O)NCCC(=O)O)cc2)C2CCCCC2)oc2cccc(F)c12 (centres unmarked) [Example A161, 3-{[(4-{[cyclohexyl(4-fluoro-3-methyl-1-benzofuran-2-yl)methyl]amino}phenyl)carbonyl]amino}propanoic acid]
80	Cc1c(C(Nc2ccc(C(=O)N(C)CCC(=O)O)cc2)C2CCCCC2)oc2ccc(Cl)cc12 (centres unmarked) [Example A89]
83	Cc1c(C(Nc2ccc(C(=O)N(C)CCC(=O)O)cc2)C2CCCCC2)oc2ccc(Cl)nc12 (centres unmarked) [Example A128, 3-{[(4-{[(5-chloro-3-methylfuro[3,2-b]pyridin-2-yl)(cyclohexyl)methyl]amino}phenyl)carbonyl](methyl)amino}-propanoic acid]
67	Cc1nn(-c2ncc(C(F)(F)F)cc2Cl)cc1C(Nc1ccc(C(=O)NCCC(=O)O)cc1)C1CCCCC1 (centres unmarked) [Example 31, 3-{[(4-{[{1-[3-chloro-5-(trifluoromethyl)pyridin-2-yl]-3-methyl-1H-pyrazol-4-yl}(cyclohexyl)methyl]amino}phenyl)carbonyl]amino}propanoic acid]
80	COCCOCc1c(C(Nc2ccc(C(=O)N(C)CCC(=O)O)cc2)C2CCCCC2)oc2ccc(F)cc12 (centres unmarked) [Example A133, 3-[({4-[(cyclohexyl{5-fluoro-3-[(2-methoxyethoxy)methyl]-1-benzofuran-2-yl}methyl)amino]phenyl}carbonyl)(methyl)amino]propanoic acid]
73	O=C(O)CCNC(=O)c1ccc(NC(c2nn(-c3ccccc3)c3ccccc23)C2CCCCC2)cc1 (centres unmarked) [Example A14, 3-{[(4-{[cyclohexyl(1-phenyl-1H-indazol-3-yl)methyl]amino}phenyl)carbonyl]amino}propanoic acid]
80	Cc1c(C(Nc2ccc(C(=O)N(C)CCC(=O)O)cc2)C2CCCCC2)oc2ccc(C#N)cc12 (centres unmarked) [Example A99, 3-{[(4-{[(5-cyano-3-methyl-1-benzofuran-2-yl)(cyclohexyl)methyl]amino}phenyl)carbonyl](methyl)amino}-propanoic acid]
89	Cc1c(C(Nc2ccc(C(=O)N(C)CCC(=O)O)cc2)C2CCCCC2)oc2ccc(OC3CCOCC3)cc12 (centres unmarked) [Example A82, 3-[{[4-({cyclohexyl[3-methyl-5-(tetrahydro-2H-pyran-4-yloxy)-1-benzofuran-2-yl]methyl}amino)phenyl]carbonyl}(methyl)amino]propanoic acid]
74	Cc1c(C(Nc2ccc(C(=O)NCCC(=O)O)cc2)C2CCCCC2)oc2ccc(OCCCS(C)(=O)=O)cc12 (centres unmarked) [Example A153, 3-[({4-[(cyclohexyl{3-methyl-5-[3-(methylsulfonyl)propoxy]-1-benzofuran-2-yl}methyl)amino]phenyl}carbonyl)amino]propanoic acid]
90	Cc1c(C(Nc2ccc(C(=O)N(C)CCC(=O)O)cc2)C2CCCCC2)oc2ccc(OCc3ccnc(F)c3)cc12 (centres unmarked) [Example A168, 3-[({4-[(cyclohexyl{5-[(2-fluoropyridin-4-yl)methoxy]-3-methyl-1-benzofuran-2-yl}methyl)amino]phenyl}carbonyl)(methyl)amino]propanoic acid]
89	Cc1c(C(Nc2ccc(C(=O)N(C)CCC(=O)O)cc2)C2CCCCC2)oc2ccc(OCc3ccc(Cl)nc3)cc12 (centres unmarked) [Example A170, 3-{[(4-{[{5-[(6-chloropyridin-3-yl)methoxy]-3-methyl-1-benzofuran-2-yl}(cyclohexyl)methyl]amino}phenyl)carbonyl](methyl)amino}-propanoic acid]
64	CCc1oc2ccccc2c1C(Nc1ccc(C(=O)N(C)CCC(=O)O)cc1)C1CCCCC1 (centres unmarked) [Example A26, 3-{[(4-{[cyclohexyl(2-ethyl-1-benzofuran-3-yl)methyl]amino}phenyl)carbonyl](methyl)amino}propanoic acid]
80	COc1ccc2oc(C(Nc3ccc(C(=O)N(C)CCC(=O)O)cc3)C3CCCCC3)c(C)c2c1 (centres unmarked) [Example A27, 3-{[(4-{[cyclohexyl(5-methoxy-3-methyl-1-benzofuran-2-yl)methyl]amino}phenyl)carbonyl](methyl)amino}propanoic acid]
63	CN(CCC(=O)O)C(=O)c1ccc(NC(c2cn(-c3ccccc3)nc2CCc2ccccc2)C2CCCCC2)cc1 (centres unmarked) [Example 16, 3-[{[4-({cyclohexyl[1-phenyl-3-(2-phenylethyl)-1H-pyrazol-4-yl]methyl}amino)phenyl]carbonyl}(methyl)amino]propanoic acid]
66	COc1ccc2oc(C(Nc3ccc(C(=O)NCCC(=O)O)cc3)C3CCCCC3)cc2c1 (centres unmarked) [Example A22, 3-{[(4-{[cyclohexyl(5-methoxy-1-benzofuran-2-yl)methyl]amino}phenyl)carbonyl]amino}propanoic acid]

Reference: patent US8436043B2 (Takeda Pharmaceutical Company Limited, priority 2008, dated 2013)
